# Source: ChEMBL document CHEMBL4308846, “How Selective Are Pharmacological Inhibitors of Cell-Cycle-Regulating Cyclin-Dependent Kinases?” (J Med Chem, 2018)
# Active and inactive are the calls of the source. No cut-off for these calls is given here.
# What was measured:
# HCT-116 [1] = experiment: Induction of cell cycle arrest in human HCT116 cells assessed as accumulation at G2/M phase at 0.07 to 0.8 uM after 24 hrs by propidium iodide-staining based flow cytometry relative to control; format: functional
# [2] = molecular target: T1, Cyclin-dependent kinase 5/CDK5 activator 1 (Homo sapiens) (UniProt Q00535+Q15078); experiment: Inhibition of CDK5/p25 in human HCT116 cells assessed as induction of dephosphorylation of FAK at Ser732 residue at 0.5 to 1 uM after 24 hrs by Western blot analysis; format: cell-based
# [3] = molecular target: Cyclin-dependent kinase 7 (Homo sapiens) (UniProt P50613); experiment: Inhibition of CDK7 in human HCT116 cells assessed as induction of dephosphorylation of RNA polymerase 2 S2/S5 residues at 0.5 to 1 uM after 24 hrs by Western blot analysis; format: cell-based
# [4] = molecular target: Cyclin-dependent kinase 9 (Homo sapiens) (UniProt P50750); experiment: Inhibition of CDK9 in human HCT116 cells assessed as induction of dephosphorylation of RNA polymerase 2 S2/S5 residues at 0.5 to 1 uM after 24 hrs by Western blot analysis; format: cell-based
# HCT-116 [5] = experiment: Induction of cell cycle arrest in CDK2 knocked out human HCT116 cells assessed as accumulation at G2/M phase at 0.5 to 3.9 after 24 hrs by propidium iodide-staining based flow cytometry; format: functional
# CDK2/Cyclin A2 = CDK2/Cyclin A2 (Homo sapiens, UniProt P24941)
# [6] = molecular target: Cyclin-dependent kinase 1/cyclin B1 (Homo sapiens, UniProt P06493); experiment: biochemical
# [7] = molecular target: Cyclin-dependent kinase 2/cyclin E1 (Homo sapiens, UniProt P24941); experiment: biochemical
# [8] = molecular target: Cyclin-dependent kinase 4/cyclin D1 (Homo sapiens, UniProt P11802); experiment: biochemical
# [9] = molecular target: Cyclin-dependent kinase 5/CDK5 activator 1 (Homo sapiens, UniProt Q00535); experiment: biochemical
# CDK7/Cyclin H/MNAT1 = CDK7/Cyclin H/MNAT1 (Homo sapiens, UniProt P50613); experiment: biochemical
# HCT-116 [10] = experiment: Induction of cell cycle arrest in human HCT116 cells assessed as accumulation at G2/M phase at 0.05 to 0.5 uM after 24 hrs by propidium iodide-staining based flow cytometry relative to control; format: functional
# [11] = molecular target: T1, Cyclin-dependent kinase 5/CDK5 activator 1 (Homo sapiens); experiment: Inhibition of CDK5/p25 in human HCT116 cells assessed as induction of dephosphorylation of FAK at Ser732 residue at 250 to 500 nM after 24 hrs by Western blot analysis; format: cell-based
# [12] = molecular target: Cyclin-dependent kinase 7 (Homo sapiens) (UniProt P50613); experiment: Inhibition of CDK7 in human HCT116 cells assessed as induction of dephosphorylation of RNA polymerase 2 S2/S5 residues at 250 to 500 nM after 24 hrs by Western blot analysis; format: cell-based
# [13] = molecular target: Cyclin-dependent kinase 9 (Homo sapiens) (UniProt P50750); experiment: Inhibition of CDK9 in human HCT116 cells assessed as induction of dephosphorylation of RNA polymerase 2 S2/S5 residues at 250 to 500 nM after 24 hrs by Western blot analysis; format: cell-based
# HCT-116 [14] = experiment: Induction of cell cycle arrest in CDK2 knocked out human HCT116 cells assessed as accumulation at G2/M phase at 100 to 500 nM after 24 hrs by propidium iodide-staining based flow cytometry; format: functional
# CDK9/cyclin T1 = CDK9/cyclin T1 (Homo sapiens, UniProt P50750); experiment: biochemical
# HCT-116 [15] = experiment: Induction of cell cycle arrest in human HCT116 cells assessed as reduction in accumulation at G1 phase 1.25 to 20 uM after 24 hrs by propidium iodide-staining based flow cytometry; format: functional
# HCT-116 [16] = experiment: Induction of cell cycle arrest in human HCT116 cells assessed as accumulation at G2/M phase 1.25 to 20 uM after 24 hrs by propidium iodide-staining based flow cytometry relative to control; format: functional
# HCT-116 [17] = experiment: Induction of cell cycle arrest in human HCT116 cells assessed as accumulation at G2/M phase at 0.2 to 13.2 uM after 24 hrs by propidium iodide-staining based flow cytometry relative to control; format: functional
# [18] = molecular target: T1, Cyclin-dependent kinase 5/CDK5 activator 1 (Homo sapiens); experiment: Inhibition of CDK5/p25 in human HCT116 cells assessed as induction of dephosphorylation of FAK at Ser732 residue at 1 to 5 uM after 24 hrs by Western blot analysis; format: cell-based
# HCT-116 [19] = experiment: Induction of cell cycle arrest in CDK2 knocked out human HCT116 cells assessed as accumulation at G2/M phase at 0.8 to 5.9 after 24 hrs by propidium iodide-staining based flow cytometry; format: functional
# HCT-116 [20] = experiment: Induction of cell cycle arrest in human HCT116 cells assessed as accumulation at S phase at 2.6 to 29.6 uM after 24 hrs by propidium iodide-staining based flow cytometry; format: functional
# [21] = molecular target: T2, N-lysine methyltransferase KMT5A (Homo sapiens, UniProt Q9NQR1); experiment: Inhibition of SETD8 (unknown origin)
# T2 sequence (Q9NQR1 whole entry): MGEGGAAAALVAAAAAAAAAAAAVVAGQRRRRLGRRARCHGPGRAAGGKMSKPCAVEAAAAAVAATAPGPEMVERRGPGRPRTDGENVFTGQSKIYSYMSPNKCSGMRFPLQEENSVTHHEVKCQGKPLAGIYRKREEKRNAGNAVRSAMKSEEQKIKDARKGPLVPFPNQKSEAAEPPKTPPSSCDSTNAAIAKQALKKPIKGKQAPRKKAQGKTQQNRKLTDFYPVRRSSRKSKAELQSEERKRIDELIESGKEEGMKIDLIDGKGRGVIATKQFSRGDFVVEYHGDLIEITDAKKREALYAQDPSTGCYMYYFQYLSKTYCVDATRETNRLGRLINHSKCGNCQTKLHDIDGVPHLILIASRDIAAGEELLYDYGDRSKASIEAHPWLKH
# HCT-116 [22] = experiment: Induction of cell cycle arrest in human HCT116 cells assessed as accumulation at 8N stage at 1.25 to 5 uM after 24 hrs by propidium iodide-staining based flow cytometry; format: functional
# HCT-116 [23] = experiment: Induction of cell cycle arrest in human HCT116 cells assessed as accumulation at G2/M phase after 24 hrs by propidium iodide-staining based flow cytometry; format: functional
# Aurora kinase A = molecular target: T3, Aurora kinase A (Homo sapiens, UniProt O14965); experiment: Inhibition of GST-tagged AURORA A (unknown origin) expressed in baculovirus infected Sf9 cells using MBP as substrate
# T3 sequence (O14965 whole entry): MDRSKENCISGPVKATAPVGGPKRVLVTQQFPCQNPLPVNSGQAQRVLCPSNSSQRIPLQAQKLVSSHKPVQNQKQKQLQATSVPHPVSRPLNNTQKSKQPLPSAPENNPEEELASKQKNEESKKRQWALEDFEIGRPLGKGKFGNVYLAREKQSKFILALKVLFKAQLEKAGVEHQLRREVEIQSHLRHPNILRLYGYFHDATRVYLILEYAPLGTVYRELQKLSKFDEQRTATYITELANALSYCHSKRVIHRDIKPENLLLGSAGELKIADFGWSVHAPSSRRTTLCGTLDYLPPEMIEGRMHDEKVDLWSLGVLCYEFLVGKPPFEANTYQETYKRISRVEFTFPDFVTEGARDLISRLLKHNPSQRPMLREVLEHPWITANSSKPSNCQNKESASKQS
# Aurora kinase B [24] = molecular target: T4, Aurora kinase B (Homo sapiens, UniProt Q96GD4); experiment: Inhibition of AURORA B in human HCT116 cells assessed as reduction in histone H3 phosphorylation at S10 residues after 24 hrs by Western blot analysis; format: cell-based
# [25] = molecular target: Cyclin-dependent kinase 1 (Homo sapiens) (UniProt P06493); experiment: Inhibition of CDK1 (unknown origin) at 10 uM
# Homo sapiens [26] = organism: Homo sapiens; experiment: Selectivity index, ratio of IC50 for inhibition of His-tagged CDK1/cyclin B1 (unknown origin) expressed in Baculovirus infected Sf9 cells to IC50 for inhibition of GST-tagged AURORA B (unknown origin) expressed in baculovirus infected Sf9 cells
# Homo sapiens [27] = organism: Homo sapiens; experiment: Selectivity index, ratio of IC50 for inhibition of His-tagged CDK1/cyclin B1 (unknown origin) expressed in Baculovirus infected Sf9 cells to IC50 for inhibition of GST-tagged AURORA A (unknown origin) expressed in baculovirus infected Sf9 cells
# [28] = molecular target: Cyclin-dependent kinase 2 (Homo sapiens, UniProt P24941)
# Aurora kinase B [29] = molecular target: T4, Aurora kinase B; experiment: biochemical
# HCT-116 [30] = experiment: Induction of cell cycle arrest in human HCT116 cells assessed as reduction in accumulation at G1 phase 2.6 to 29.6 uM after 24 hrs by propidium iodide-staining based flow cytometry; format: functional
# HCT-116 [31] = experiment: Induction of cell cycle arrest in human HCT116 cells assessed as accumulation at G2/M phase 2.6 to 29.6 uM after 24 hrs by propidium iodide-staining based flow cytometry relative to control; format: functional
# HCT-116 [32] = experiment: Induction of cell cycle arrest in human HCT116 cells assessed as accumulation at G2/M phase at 5.9 to […] after 24 hrs by propidium iodide-staining based flow cytometry; format: functional
# HCT-116 [33] = experiment: Induction of cell cycle arrest in human HCT116 cells assessed as accumulation at G1 phase at 0.03 to 0.8 uM after 24 hrs by propidium iodide-staining based flow cytometry; format: functional
# HCT-116 [34] = experiment: Induction of cell cycle arrest in human HCT116 cells assessed as accumulation at G2/M phase at 0.03 to 0.8 uM after 24 hrs by propidium iodide-staining based flow cytometry; format: functional
# Sequence of Cyclin-dependent kinase 1/cyclin B1 (P06493 whole entry): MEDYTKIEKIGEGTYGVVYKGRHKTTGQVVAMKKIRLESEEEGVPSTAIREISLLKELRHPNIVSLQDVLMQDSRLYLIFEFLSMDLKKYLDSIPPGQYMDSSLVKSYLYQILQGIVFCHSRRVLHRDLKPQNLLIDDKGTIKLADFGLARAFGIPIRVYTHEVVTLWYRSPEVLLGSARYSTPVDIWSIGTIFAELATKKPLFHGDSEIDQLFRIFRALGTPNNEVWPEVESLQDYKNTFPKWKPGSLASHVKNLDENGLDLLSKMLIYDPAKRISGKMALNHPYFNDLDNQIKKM
# Sequence of Cyclin-dependent kinase 1/cyclin B1 (P14635 whole entry, further chain): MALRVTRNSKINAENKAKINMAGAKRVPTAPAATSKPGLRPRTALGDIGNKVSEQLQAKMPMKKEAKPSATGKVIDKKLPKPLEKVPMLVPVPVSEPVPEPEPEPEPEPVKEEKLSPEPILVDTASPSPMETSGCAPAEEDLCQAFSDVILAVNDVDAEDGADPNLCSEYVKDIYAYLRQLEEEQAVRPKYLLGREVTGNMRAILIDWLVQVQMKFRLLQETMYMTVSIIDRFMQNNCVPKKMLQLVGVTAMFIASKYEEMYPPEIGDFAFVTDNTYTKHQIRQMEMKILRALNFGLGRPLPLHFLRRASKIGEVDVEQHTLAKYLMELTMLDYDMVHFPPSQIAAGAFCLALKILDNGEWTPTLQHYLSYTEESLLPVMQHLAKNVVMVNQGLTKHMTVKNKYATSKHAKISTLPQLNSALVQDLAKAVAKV
# Sequence of Cyclin-dependent kinase 4/cyclin D1 (P11802 whole entry): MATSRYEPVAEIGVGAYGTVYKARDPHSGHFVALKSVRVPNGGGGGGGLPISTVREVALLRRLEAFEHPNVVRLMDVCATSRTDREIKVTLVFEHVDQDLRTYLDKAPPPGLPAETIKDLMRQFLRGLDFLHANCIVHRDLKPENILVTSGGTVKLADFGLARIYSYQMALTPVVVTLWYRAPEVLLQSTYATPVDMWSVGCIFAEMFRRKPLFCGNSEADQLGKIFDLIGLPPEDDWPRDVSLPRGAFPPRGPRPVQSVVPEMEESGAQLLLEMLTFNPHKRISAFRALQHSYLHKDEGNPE
# Sequence of Cyclin-dependent kinase 4/cyclin D1 (P24385 whole entry, further chain): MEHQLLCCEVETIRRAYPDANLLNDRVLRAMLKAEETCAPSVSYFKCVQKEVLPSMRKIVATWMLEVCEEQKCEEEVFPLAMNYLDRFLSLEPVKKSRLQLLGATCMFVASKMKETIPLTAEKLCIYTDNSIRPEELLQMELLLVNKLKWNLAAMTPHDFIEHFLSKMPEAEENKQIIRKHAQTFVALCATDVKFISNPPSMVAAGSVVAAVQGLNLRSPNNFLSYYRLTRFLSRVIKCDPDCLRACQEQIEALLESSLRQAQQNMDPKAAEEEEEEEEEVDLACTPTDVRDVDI
# Sequence of CDK9/cyclin T1 (O60563 whole entry): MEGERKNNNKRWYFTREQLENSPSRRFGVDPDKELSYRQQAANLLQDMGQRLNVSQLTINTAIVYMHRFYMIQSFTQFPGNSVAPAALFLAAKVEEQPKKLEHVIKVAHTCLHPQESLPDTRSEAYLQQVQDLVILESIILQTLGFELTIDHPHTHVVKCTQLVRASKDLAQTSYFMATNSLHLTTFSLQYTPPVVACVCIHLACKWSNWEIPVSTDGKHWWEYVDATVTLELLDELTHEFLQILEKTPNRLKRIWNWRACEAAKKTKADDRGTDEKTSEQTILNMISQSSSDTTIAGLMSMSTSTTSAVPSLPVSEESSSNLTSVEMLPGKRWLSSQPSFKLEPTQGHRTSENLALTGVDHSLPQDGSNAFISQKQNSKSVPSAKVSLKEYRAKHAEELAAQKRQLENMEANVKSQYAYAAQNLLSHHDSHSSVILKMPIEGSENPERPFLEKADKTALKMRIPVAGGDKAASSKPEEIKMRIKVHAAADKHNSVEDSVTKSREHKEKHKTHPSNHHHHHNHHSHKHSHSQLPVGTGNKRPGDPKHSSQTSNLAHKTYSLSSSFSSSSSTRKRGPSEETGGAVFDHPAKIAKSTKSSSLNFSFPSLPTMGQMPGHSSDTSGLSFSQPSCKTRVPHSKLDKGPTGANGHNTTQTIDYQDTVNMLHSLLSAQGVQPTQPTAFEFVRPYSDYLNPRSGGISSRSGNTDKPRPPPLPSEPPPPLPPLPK
# Sequence of CDK9/cyclin T1 (P50750 whole entry): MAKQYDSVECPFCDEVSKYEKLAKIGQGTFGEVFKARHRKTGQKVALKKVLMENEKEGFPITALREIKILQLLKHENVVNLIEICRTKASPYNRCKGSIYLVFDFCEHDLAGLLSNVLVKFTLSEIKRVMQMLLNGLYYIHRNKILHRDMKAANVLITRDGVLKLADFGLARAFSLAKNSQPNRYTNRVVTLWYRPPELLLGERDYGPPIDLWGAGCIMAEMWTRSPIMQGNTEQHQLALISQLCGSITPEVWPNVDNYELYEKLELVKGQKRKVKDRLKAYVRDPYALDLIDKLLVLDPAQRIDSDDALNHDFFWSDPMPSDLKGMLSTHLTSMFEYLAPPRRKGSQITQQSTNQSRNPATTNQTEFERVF
# Sequence of Cyclin-dependent kinase 5/CDK5 activator 1 (Q00535 whole entry): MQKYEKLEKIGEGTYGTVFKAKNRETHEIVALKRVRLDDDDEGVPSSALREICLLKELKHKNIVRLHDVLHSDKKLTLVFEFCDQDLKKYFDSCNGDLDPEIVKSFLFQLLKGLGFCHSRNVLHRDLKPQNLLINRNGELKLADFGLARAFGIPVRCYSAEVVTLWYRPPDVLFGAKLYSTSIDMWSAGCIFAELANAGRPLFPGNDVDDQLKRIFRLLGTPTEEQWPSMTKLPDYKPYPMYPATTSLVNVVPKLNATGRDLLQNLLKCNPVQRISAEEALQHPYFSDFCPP
# Sequence of Cyclin-dependent kinase 5/CDK5 activator 1 (Q15078 whole entry, further chain): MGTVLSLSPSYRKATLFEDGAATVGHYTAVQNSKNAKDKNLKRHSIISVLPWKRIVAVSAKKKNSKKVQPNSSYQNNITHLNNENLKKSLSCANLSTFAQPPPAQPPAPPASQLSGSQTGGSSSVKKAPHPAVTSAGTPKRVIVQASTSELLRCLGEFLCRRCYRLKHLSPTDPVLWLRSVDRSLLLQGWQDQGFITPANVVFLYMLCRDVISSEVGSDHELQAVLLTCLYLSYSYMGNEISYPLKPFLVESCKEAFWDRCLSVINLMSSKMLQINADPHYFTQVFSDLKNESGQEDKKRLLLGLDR
# T1 sequence (Q00535 whole entry): as the sequence (Q00535 whole entry) above
# T1 sequence (Q15078 99-307 partner limits assumed): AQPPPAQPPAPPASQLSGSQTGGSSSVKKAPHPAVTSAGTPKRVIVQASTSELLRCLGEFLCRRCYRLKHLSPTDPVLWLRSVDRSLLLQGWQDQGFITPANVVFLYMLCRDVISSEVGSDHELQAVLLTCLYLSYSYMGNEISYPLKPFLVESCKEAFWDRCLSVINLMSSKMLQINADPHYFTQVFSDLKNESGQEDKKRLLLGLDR
# Sequence of CDK7/Cyclin H/MNAT1 (P51946 whole entry): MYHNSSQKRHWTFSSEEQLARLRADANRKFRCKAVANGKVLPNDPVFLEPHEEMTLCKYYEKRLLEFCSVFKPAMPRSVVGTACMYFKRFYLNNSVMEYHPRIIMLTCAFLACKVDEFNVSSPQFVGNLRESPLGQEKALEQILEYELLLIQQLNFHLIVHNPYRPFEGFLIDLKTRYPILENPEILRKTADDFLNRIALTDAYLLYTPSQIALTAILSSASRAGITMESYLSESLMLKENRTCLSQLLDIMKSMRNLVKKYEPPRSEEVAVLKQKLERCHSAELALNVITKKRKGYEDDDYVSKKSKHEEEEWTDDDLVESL
# Sequence of CDK7/Cyclin H/MNAT1 (P50613 whole entry): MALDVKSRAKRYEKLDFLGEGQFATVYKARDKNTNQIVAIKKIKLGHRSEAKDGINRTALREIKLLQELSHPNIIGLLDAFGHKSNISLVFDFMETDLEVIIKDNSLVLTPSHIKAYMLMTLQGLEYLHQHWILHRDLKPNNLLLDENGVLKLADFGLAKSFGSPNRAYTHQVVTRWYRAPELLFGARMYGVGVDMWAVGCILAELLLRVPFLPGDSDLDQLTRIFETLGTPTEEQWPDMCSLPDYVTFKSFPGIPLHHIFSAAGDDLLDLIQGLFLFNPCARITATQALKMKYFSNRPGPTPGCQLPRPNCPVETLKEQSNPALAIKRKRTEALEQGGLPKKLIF
# Sequence of CDK7/Cyclin H/MNAT1 (P51948 whole entry, further chain): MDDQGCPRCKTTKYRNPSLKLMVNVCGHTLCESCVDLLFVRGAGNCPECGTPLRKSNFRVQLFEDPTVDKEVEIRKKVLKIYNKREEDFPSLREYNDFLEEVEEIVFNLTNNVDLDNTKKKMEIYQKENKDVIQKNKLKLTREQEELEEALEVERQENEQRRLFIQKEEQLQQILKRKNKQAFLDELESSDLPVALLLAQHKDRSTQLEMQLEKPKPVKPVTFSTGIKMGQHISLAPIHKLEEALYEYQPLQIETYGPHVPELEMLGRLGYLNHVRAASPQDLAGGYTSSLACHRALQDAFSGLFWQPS
# T4 sequence (Q96GD4 whole entry): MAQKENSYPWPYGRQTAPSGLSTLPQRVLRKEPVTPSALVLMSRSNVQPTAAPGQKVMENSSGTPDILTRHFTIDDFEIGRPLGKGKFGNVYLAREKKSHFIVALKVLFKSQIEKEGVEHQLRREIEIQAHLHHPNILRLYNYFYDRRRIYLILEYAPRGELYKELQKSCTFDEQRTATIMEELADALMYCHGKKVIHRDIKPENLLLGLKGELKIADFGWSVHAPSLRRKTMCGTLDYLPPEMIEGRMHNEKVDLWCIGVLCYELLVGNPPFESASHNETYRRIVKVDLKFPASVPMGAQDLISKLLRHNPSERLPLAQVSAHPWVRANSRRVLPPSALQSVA
SMILES,IC50 (CDK2/Cyclin A2),IC50 [6],IC50 [7],IC50 [8],IC50 [9],IC50 (CDK7/Cyclin H/MNAT1),IC50 (CDK9/cyclin T1),further results
OCCCNc1cc(-c2ccnc(Nc3cccc(Cl)c3)n2)ccn1,4 nM,26 nM,3 nM,216 nM,10 nM,200 nM,,Activity (HCT-116 [1]): <=30%; inhibition [2]: Active; inhibition [3]: inactive; inhibition [4]: inactive; Activity (HCT-116 [5]): Active
Nc1nc(Nc2ccc(S(N)(=O)=O)cc2)nn1C(=S)Nc1c(F)cccc1F,,2 nM,,59 nM,0.2 nM,66 nM,30 nM,Activity (HCT-116 [10]): >=60%; inhibition [11]: Active; inhibition [12]: inactive; inhibition [13]: inactive; Activity (HCT-116 [14]): Active
O=C1NC(=O)c2c1c1c3ccccc3[nH]c1c1[nH]c3ccccc3c21 [STAUROSPORINE AGLYCON],135 nM,964 nM,,199 nM,936 nM,> 20000 nM,> 20000 nM,Activity (HCT-116 [15]): Active; Activity (HCT-116 [16]): >=60%
CCCCOc1c(C(=O)c2c(F)cc(C)cc2F)c[nH]c2nncc1-2,71 nM,14 nM,6 nM,222 nM,258 nM,1600 nM,1800 nM,Activity (HCT-116 [17]): 30 - 60%; inhibition [18]: Active; Activity (HCT-116 [19]): Active
Cc1ccc(NC2=CC(=O)c3sc(C)nc3C2=O)cc1,> 20000 nM,> 20000 nM,> 20000 nM,9500 nM,> 20000 nM,> 20000 nM,> 20000 nM,Activity (HCT-116 [20]): 15%; IC50 [21]: 500 nM
CCN(CC)C(=O)c1ccc(Nc2nc(OCC3CCCCC3)c3nc[nH]c3n2)cc1,407000 nM,5800 nM,1100 nM,940 nM,8800 nM,2300 nM,5100 nM,Activity (HCT-116 [22]): Active; Activity (HCT-116 [23]): >=60%; IC50 (Aurora kinase A): 67 nM; inhibition (Aurora kinase B [24]): Dose-dependent effect; inhibition [25]: 44%; Ratio IC50 (Homo sapiens [26]): 6 to 10; Ratio IC50 (Homo sapiens [27]): 6 to 10; IC50 [28]: 400 nM; IC50 (Aurora kinase B [29]): 35 nM
O=C1NC(=O)c2c1c1c3ccccc3[nH]c1c1[nH]c3cc(Br)ccc3c21,185 nM,1500 nM,229 nM,91 nM,154 nM,> 20000 nM,4000 nM,Activity (HCT-116 [30]): Active; Activity (HCT-116 [31]): <=30%
CC[C@H](CO)Nc1nc(Nc2cccc(-c3ccccn3)c2)c2ncn(C(C)C)c2n1,290 nM,3700 nM,93 nM,> 20000 nM,215 nM,822 nM,8000 nM,Activity (HCT-116 [32]): <=30%
CCN1CCN(Cc2ccc(Nc3ncc(F)c(-c4cc(F)c5nc(C)n(C(C)C)c5c4)n3)nc2)CC1 [ABEMACICLIB],,,,,,,,Activity (HCT-116 [33]): Active; Activity (HCT-116 [34]): <=30%
